Experimental data: patent US20120053053A1, “PYRIMIDINE DERIVATIVES AND THEIR USE AS HERBICIDES” (SYNGENTA CROP PROTECTION, LLC, priority 2009, published 2012)

Legend:
[1] = system: Alopecurus myosuroides (ALOMY); assay: Post-emergence biological efficacy (percentage damage); format: in vivo; conditions: Alopecurus myosuroides, 312 h, dose 1,000 g/ha, evaluated after 13 days, 100=total damage, 0=no damage
Summary of the method: (§1)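 Pot-grown plants are cultivated 8 days under glasshouse conditions (24/16 °C, 14 h light, 65% humidity), sprayed at a dose of 250 or 1000 g/ha, kept under the same conditions with twice-daily watering, and rated for damage after 13 days.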

[2] = system: Ipomea hederaceae (IPOHE); assay: as above; format: in vivo; conditions: Ipomoea hederacea, 312 h, dose 1,000 g/ha, evaluated after 13 days, 100=total damage, 0=no damage
Summary of the method: as §1

[3] = system: Amaranthus retoflexus (AMARE); assay: as above; format: in vivo; conditions: Amaranthus retroflexus, 312 h, dose 1,000 g/ha, evaluated after 13 days, 100=total damage, 0=no damage
Summary of the method: as §1

Setaria faberi (SETFA) [4] = assay: as above; format: in vivo; conditions: Setaria faberi, 312 h, dose 1,000 g/ha, evaluated after 13 days, 100=total damage, 0=no damage
Summary of the method: as §1

Solanum nigrum (SOLNI) [5] = assay: as above; format: in vivo; conditions: Solanum nigrum, 312 h, dose 1,000 g/ha, evaluated after 13 days, 100=total damage, 0=no damage
Summary of the method: as §1

[6] = system: Echinochloa crus-galli (ECHCG); assay: as above; format: in vivo; conditions: Echinochloa crus-galli, 312 h, dose 1,000 g/ha, evaluated after 13 days, 100=total damage, 0=no damage
Summary of the method: as §1

[7] = system: Alopecurus myosuroides (ALOMY); assay: Pre-emergence biological efficacy (percentage damage); format: in vivo; conditions: Alopecurus myosuroides, 312 h, dose 1,000 g/ha, evaluated after 13 days, 100=total damage, 0=no damage
Summary of the method: (§2)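 Sow seeds in pots of standard soil; hold 1 day in glasshouse (24/16 °C, 14 h light, 65% humidity). Spray aqueous solution from acetone/water (50:50) with 0.5% Tween 20 at 250 or 1000 g/ha. Grow on, watering twice daily; rate damage at 13 days.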

[8] = system: Ipomea hederaceae (IPOHE); assay: as above; format: in vivo; conditions: Ipomoea hederacea, 312 h, dose 1,000 g/ha, evaluated after 13 days, 100=total damage, 0=no damage
Summary of the method: as §2

[9] = system: Amaranthus retoflexus (AMARE); assay: as above; format: in vivo; conditions: Amaranthus retroflexus, 312 h, dose 1,000 g/ha, evaluated after 13 days, 100=total damage, 0=no damage
Summary of the method: as §2

Setaria faberi (SETFA) [10] = assay: as above; format: in vivo; conditions: Setaria faberi, 312 h, dose 1,000 g/ha, evaluated after 13 days, 100=total damage, 0=no damage
Summary of the method: as §2

Solanum nigrum (SOLNI) [11] = assay: as above; format: in vivo; conditions: Solanum nigrum, 312 h, dose 1,000 g/ha, evaluated after 13 days, 100=total damage, 0=no damage
Summary of the method: as §2

[12] = system: Echinochloa crus-galli (ECHCG); assay: as above; format: in vivo; conditions: Echinochloa crus-galli, 312 h, dose 1,000 g/ha, evaluated after 13 days, 100=total damage, 0=no damage
Summary of the method: as §2

In the case of `COC(=O)c1nc(C2CC2)nc(N)c1C` [Compound 2-41], the pest or weed control at 1000 g/ha [1] is reported as 40%, the pest or weed control at 1000 g/ha [2] is reported as 100% and the pest or weed control at 1000 g/ha [3] is reported as 100%. It also gave a pest or weed control at 1000 g/ha (Setaria faberi (SETFA) [4]) of 80%, a pest or weed control at 1000 g/ha (Solanum nigrum (SOLNI) [5]) of 90% and a pest or weed control at 1000 g/ha [6] of 60%. For the same compound, the melting point was 152 to 153 °C, the pest or weed control at 1000 g/ha [7] was 20% and the pest or weed control at 1000 g/ha [8] was 60%. The pest or weed control at 1000 g/ha [9] was 70%, the pest or weed control at 1000 g/ha (Setaria faberi (SETFA) [10]) was 30% and the pest or weed control at 1000 g/ha (Solanum nigrum (SOLNI) [11]) was 50%. The pest or weed control at 1000 g/ha [12] was 20%.
`C=Cc1c(C(=O)OC)nc(C2CC2)nc1[S+](C)[O-]` (centres unmarked) [Compound 2-401, 2-cyclopropyl-5-ethenyl-6-methoxycarbonyl-4-methylsulphinyl-pyrimidine] showed a pest or weed control at 1000 g/ha [1] of 0%, a pest or weed control at 1000 g/ha [2] of 70% and a pest or weed control at 1000 g/ha [3] of 70%. The pest or weed control at 1000 g/ha (Setaria faberi (SETFA) [4]) was 0%, the pest or weed control at 1000 g/ha (Solanum nigrum (SOLNI) [5]) was 80% and the pest or weed control at 1000 g/ha [6] was 0%. The melting point was 74 to 75 °C, the pest or weed control at 1000 g/ha [7] was 0% and the pest or weed control at 1000 g/ha [8] was 70%. It also gave a pest or weed control at 1000 g/ha [9] of 70%, a pest or weed control at 1000 g/ha (Setaria faberi (SETFA) [10]) of 0% and a pest or weed control at 1000 g/ha (Solanum nigrum (SOLNI) [11]) of 10%. For the same compound, the pest or weed control at 1000 g/ha [12] was 0%.
Compound `C=Cc1c(OC)nc(-c2ccc(Cl)c(OC)c2F)nc1C(=O)OC` [Compound 27-398, 2-(4-chloro-2-fluoro-3-methoxyphenyl)-5-ethenyl-4-methoxy-6-methoxycarbonyl-pyrimidine] has a pest or weed control at 1000 g/ha [1] of 0%, a pest or weed control at 1000 g/ha [2] of 40% and a pest or weed control at 1000 g/ha [3] of 0%. For the same compound, the pest or weed control at 1000 g/ha (Setaria faberi (SETFA) [4]) was 0%, the pest or weed control at 1000 g/ha (Solanum nigrum (SOLNI) [5]) was 20% and the pest or weed control at 1000 g/ha [6] was 0%. For the same compound, the melting point was 107 to 108 °C, the pest or weed control at 1000 g/ha [7] was 0% and the pest or weed control at 1000 g/ha [8] was 0%. For the same compound, the pest or weed control at 1000 g/ha [9] was 0%, the pest or weed control at 1000 g/ha (Setaria faberi (SETFA) [10]) was 0% and the pest or weed control at 1000 g/ha (Solanum nigrum (SOLNI) [11]) was 0%. The pest or weed control at 1000 g/ha [12] was 0%.
In the case of `COC(=O)c1nc(-c2ccc(Cl)c(N(C)C)c2F)nc(N)c1C1CC1` [Compound 33-58, 4-amino-2-(4-chloro-3-dimethylamino-2-fluorophenyl)-5-cyclopropyl-6-methoxycarbonylpyrimidine], the pest or weed control at 1000 g/ha [1] is reported as 10%, the pest or weed control at 1000 g/ha [2] is reported as 0% and the pest or weed control at 1000 g/ha [3] is reported as 10%. It also gave a pest or weed control at 1000 g/ha (Setaria faberi (SETFA) [4]) of 60%, a pest or weed control at 1000 g/ha (Solanum nigrum (SOLNI) [5]) of 10% and a pest or weed control at 1000 g/ha [6] of 10%. The melting point was 156 to 158 °C, the pest or weed control at 1000 g/ha [7] was 0% and the pest or weed control at 1000 g/ha [8] was 0%. The pest or weed control at 1000 g/ha [9] was 0%, the pest or weed control at 1000 g/ha (Setaria faberi (SETFA) [10]) was 0% and the pest or weed control at 1000 g/ha (Solanum nigrum (SOLNI) [11]) was 0%. For the same compound, the pest or weed control at 1000 g/ha [12] was 0%.
For `C=Cc1c(N)nc(-c2ccc(C)cc2)nc1C(=O)OC` [Compound 36-61, 4-amino-5-ethenyl-6-methoxycarbonyl-2-(4-methylphenyl)-pyrimidine], the pest or weed control at 1000 g/ha [1] was 70%, the pest or weed control at 1000 g/ha [2] was 90% and the pest or weed control at 1000 g/ha [3] was 100%. For the same compound, the pest or weed control at 1000 g/ha (Setaria faberi (SETFA) [4]) was 80%, the pest or weed control at 1000 g/ha (Solanum nigrum (SOLNI) [5]) was 80% and the pest or weed control at 1000 g/ha [6] was 90%. For the same compound, the melting point was 122 to 123 °C, the pest or weed control at 1000 g/ha [7] was 70% and the pest or weed control at 1000 g/ha [8] was 100%. For the same compound, the pest or weed control at 1000 g/ha [9] was 100%, the pest or weed control at 1000 g/ha (Setaria faberi (SETFA) [10]) was 80% and the pest or weed control at 1000 g/ha (Solanum nigrum (SOLNI) [11]) was 100%. For the same compound, the pest or weed control at 1000 g/ha [12] was 90%.
Compound `C=Cc1c(N)nc(-c2ccc3c(c2)OCCO3)nc1C(=O)OC` [Compound 71-61, 4-Amino-5-ethenyl-2-(3,4-ethylenedioxy-phenyl)-6-methoxycarbonyl-pyrimidine] has a pest or weed control at 1000 g/ha [1] of 0%, a pest or weed control at 1000 g/ha [2] of 40% and a pest or weed control at 1000 g/ha [3] of 20%. It also gave a pest or weed control at 1000 g/ha (Setaria faberi (SETFA) [4]) of 0%, a pest or weed control at 1000 g/ha (Solanum nigrum (SOLNI) [5]) of 60% and a pest or weed control at 1000 g/ha [6] of 30%. The pest or weed control at 1000 g/ha [7] was 10%, the pest or weed control at 1000 g/ha [8] was 0% and the pest or weed control at 1000 g/ha [9] was 0%. The pest or weed control at 1000 g/ha (Setaria faberi (SETFA) [10]) was 0%, the pest or weed control at 1000 g/ha (Solanum nigrum (SOLNI) [11]) was 40% and the pest or weed control at 1000 g/ha [12] was 20%.
For `C=Cc1c(N)nc(-c2ccc(SC)cc2)nc1C(=O)OC` [Compound 72-61, 4-Amino-5-ethenyl-6-methoxycarbonyl-2-(4-methylthiophenyl)-pyrimidine], the pest or weed control at 1000 g/ha [1] was 10%, the pest or weed control at 1000 g/ha [2] was 50% and the pest or weed control at 1000 g/ha [3] was 10%. The pest or weed control at 1000 g/ha (Setaria faberi (SETFA) [4]) was 0%, the pest or weed control at 1000 g/ha (Solanum nigrum (SOLNI) [5]) was 60% and the pest or weed control at 1000 g/ha [6] was 0%. It also gave a pest or weed control at 1000 g/ha [7] of 0%, a pest or weed control at 1000 g/ha [8] of 70% and a pest or weed control at 1000 g/ha [9] of 60%. The pest or weed control at 1000 g/ha (Setaria faberi (SETFA) [10]) was 0%, the pest or weed control at 1000 g/ha (Solanum nigrum (SOLNI) [11]) was 50% and the pest or weed control at 1000 g/ha [12] was 0%.
In the case of `C=Cc1c(N)nc(-c2ccc3ccccc3c2)nc1C(=O)OC` [Compound 73-61, 4-Amino-5-ethenyl-6-methoxycarbonyl-2-(2-naphthyl)-pyrimidine], the pest or weed control at 1000 g/ha [1] is reported as 0%, the pest or weed control at 1000 g/ha [2] is reported as 0% and the pest or weed control at 1000 g/ha [3] is reported as 20%. For the same compound, the pest or weed control at 1000 g/ha (Setaria faberi (SETFA) [4]) was 0%, the pest or weed control at 1000 g/ha (Solanum nigrum (SOLNI) [5]) was 30% and the pest or weed control at 1000 g/ha [6] was 0%. The pest or weed control at 1000 g/ha [7] was 0%, the pest or weed control at 1000 g/ha [8] was 0% and the pest or weed control at 1000 g/ha [9] was 0%. It also gave a pest or weed control at 1000 g/ha (Setaria faberi (SETFA) [10]) of 0%, a pest or weed control at 1000 g/ha (Solanum nigrum (SOLNI) [11]) of 0% and a pest or weed control at 1000 g/ha [12] of 0%.
